In patent publication US20240239861A1, “GLUCAGON-RECEPTOR SELECTIVE POLYPEPTIDES AND METHODS OF USE THEREOF” (i2O Therapeutics, Inc., priority 2016, published 2024):
Read-outs that look alike come from different tables or passages of the source. Where a SMILES comes first, the peptide text is derived from it. [ ]: non-standard residue; d: D form. Aib = CC(C)(N)C(=O)O

Key:
human GCGR = human GCGR (Homo sapiens, UniProt P47871); experiment: Peptide-receptor mediated cAMP accumulation (LANCE Ultra cAMP) in CHO-K1 cells transfected with human GCGR; assay type: cell-based; details: for hGCGR pEC50 (cAMP mean (n = 3): 11 point curve starting at 1 nM): Table 3
human GCGR, sequence (P47871 26-477): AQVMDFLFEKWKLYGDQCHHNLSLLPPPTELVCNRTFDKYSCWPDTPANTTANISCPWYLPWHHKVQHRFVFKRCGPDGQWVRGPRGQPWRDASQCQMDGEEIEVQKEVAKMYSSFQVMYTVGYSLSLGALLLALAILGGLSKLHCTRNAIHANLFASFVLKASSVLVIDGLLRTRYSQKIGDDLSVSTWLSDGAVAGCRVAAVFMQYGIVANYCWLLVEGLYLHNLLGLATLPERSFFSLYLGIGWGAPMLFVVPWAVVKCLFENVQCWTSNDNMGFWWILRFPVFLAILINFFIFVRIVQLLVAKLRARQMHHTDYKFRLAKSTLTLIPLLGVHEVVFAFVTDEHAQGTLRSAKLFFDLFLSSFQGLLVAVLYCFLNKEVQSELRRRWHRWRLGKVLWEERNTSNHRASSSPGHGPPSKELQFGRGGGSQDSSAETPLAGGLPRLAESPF

human GLP-1R = human GLP-1R (Homo sapiens, UniProt P43220); experiment: Peptide-receptor mediated cAMP accumulation (LANCE Ultra cAMP) in CHO-K1 cells transfected with human GLP-1R; assay type: cell-based
human GLP-1R, sequence (P43220 24-463): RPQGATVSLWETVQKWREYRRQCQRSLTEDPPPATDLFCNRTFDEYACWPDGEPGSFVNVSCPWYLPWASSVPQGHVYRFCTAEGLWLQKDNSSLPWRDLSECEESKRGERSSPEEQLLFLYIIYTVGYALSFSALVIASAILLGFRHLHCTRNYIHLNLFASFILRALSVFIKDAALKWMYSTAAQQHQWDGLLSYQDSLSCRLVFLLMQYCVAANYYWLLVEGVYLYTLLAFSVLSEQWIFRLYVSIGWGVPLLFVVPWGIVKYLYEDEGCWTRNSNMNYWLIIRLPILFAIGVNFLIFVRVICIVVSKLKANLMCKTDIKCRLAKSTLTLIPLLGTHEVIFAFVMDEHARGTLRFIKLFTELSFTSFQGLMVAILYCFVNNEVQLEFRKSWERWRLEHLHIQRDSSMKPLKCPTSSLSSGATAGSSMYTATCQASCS

[1] = Solubility in water or saline at room temperature, visual inspection; assay type: physicochemical
Description: Samples were visually inspected for clarity of the sample, any appearance of turbidity or haziness.

[2] = Stability in water or saline at 37° C. and room temperature, 30 days, LC/MS and HPLC purity; assay type: physicochemical
Description: Samples were withdrawn at a regular interval for 30 days and analyzed by LC/MS and HPLC for determination of purity and mass of the degradation product.

[3] = 3-hour intravenous infusion pharmacokinetics, peptide clearance (CL); details: male, rat, in vivo
Description: (§1) Peptides were formulated in sterile saline and administered as a 3-hour intravenous infusion to non-fasted male Wistar Han or Sprague-Dawley rats (n=3 per group) via jugular vein cannula at a final dose of 0.3 or 0.1 mg/kg. […] Plasma was prepared by centrifugation and stored at −80° C. until analysis.
(§2) Protein Precipitation: All 96-well plates were coated with a blocking agent to mitigate non-specific binding of peptides. Plasma samples (75 uL) were added to a 96-well plate containing 200 uL of 2:1 ethanol:acetonitrile containing 0.1% TFA and mixed well via aspiration. Plates were capped, vortex-mixed and centrifuged. Supernatants (215 uL) were transferred to a clean 96-well plate, evaporated to dryness under nitrogen flow and then reconstituted in 75 μL of 20% acetonitrile in water containing 0.10% formic acid.
(§3) Solid-Phase Extraction: Samples were diluted 3-fold with 5% NH4OH (aq) and loaded onto an Oasis MAX microElution plate (Waters Corp, Milford, MA) that had been pre-conditioned with 200 uL each of methanol and 5% NH4OH (aq). The plate was washed with 200 uL 5% NH4OH (aq), followed by 200 uL 20% acetonitrile in water. […] Samples were reconstituted in 80 uL 0.1% formic acid in water.
(§4) All calibration standards were prepared in control rat plasma containing K2EDTA and protease inhibitor cocktail. […] Samples were injected onto a 2.1×50 mm reverse phase C18 analytical column, typically a Waters ACQUITY UPLC™ HSS T3, 1.8 μm (Waters Corporation, Milford, MA) or similar. […] Typical flow rates were 600 L/min. The column temperature was held constant at 40 or 45° C. Peptides were quantified my monitoring one or more product ions produced from a multiply charged parent ion.

in vivo = details: male, rat
Description: as §1, §2, §3, §4

[4] = hGLP1 pEC50 (cAMP mean (n = 3): 11 point curve starting at 1 nM, Table 3)
[5] = hGLP1 pEC50 (cAMP) mean (n = 9): 11 point curve starting at 500 uM, Table 2A
[6] = hGLP1 pEC50 (cAMP) mean (n = 3): 11 point curve starting at 1 nM, Table 2B

Row | SMILES | EC50 (human GCGR) [nM] | hGCGR pEC50 (cAMP mean (n = 3): 11 point curve starting at 1 nM) (human GCGR) | EC50 (human GLP-1R; [4]) [nM] | EC50 (human GLP-1R; [5]) [nM] | solubility ([1]; Table 3, room temperature, read-out: Solubility in water) [mg/mL] | Stability 1 mg/ml in water at 37 degC ([2]; Table 3, % printed only in cells of A1-A6) [%] | CL (FIGURE 2B) [mL/min/kg] | clearance [3] [mL/min/kg] | EC50 (human GCGR; Table 2A) [nM] | solubility ([1]; Solubility in water mg/ml) [mg/mL] | Stability 1 mg/ml in water at 37 degC [2] [%] | clearance (in vivo) [mL/min/kg] | EC50 (human GLP-1R; [6]) [nM] | CL (FIGURE 2A) [mL/min/kg] | EC50 (human GCGR; Table 2B) [nM]
1 | CC[C@H](C)[C@H](NC(=O)[C@@H](NC(=O)[C@H](Cc1ccccc1)NC(=O)[C@H](CCC(=O)O)NC(=O)[C@H](CCC(N)=O)NC(=O)[C@H](C)NC(=O)[C@H](CCCNC(=N)N)NC(=O)[C@H](CCCCN)NC(=O)C(C)(C)NC(=O)[C@H](CC(=O)O)NC(=O)[C@H](CC(C)C)NC(=O)[C@H](Cc1ccc(O)cc1)NC(=O)[C@H](CCCCN)NC(=O)[C@H](CO)NC(=O)[C@H](Cc1ccc(O)cc1)NC(=O)[C@H](CC(=O)O)NC(=O)[C@H](CO)NC(=O)[C@@H](NC(=O)[C@H](Cc1ccccc1)NC(=O)[C@@H](NC(=O)CNC(=O)[C@H](Cc1c[nH]cn1)NC(=O)[C@H](CO)NC(=O)[C@@H](N)Cc1ccc(O)cc1)[C@@H](C)O)[C@@H](C)O)C(C)C)C(=O)N[C@@H](Cc1c[nH]c2ccccc12)C(=O)N[C@@H](CC(C)C)C(=O)N[C@@H](CCC(=O)O)C(=O)N[C@@H](CC(=O)O)C(=O)N[C@@H](CCC(=O)O)C(=O)N1CCC[C@H]1C(=O)N[C@@H](CO)C(=O)N[C@@H](CO)C(=O)NCC(=O)N[C@@H](C)C(=O)N1CCC[C@H]1C(=O)N1CCC[C@H]1C(=O)N1CCC[C@H]1C(=O)N[C@@H](CO)C(=O)O [Compound A4] | 0.00158 | 11.8 | > 10000 | > 10000 | > 200 | >81 | 15.0 ± 0.7 | 12.6 | – | – | – | – | – | – | –
2 | CC(C)C[C@H](NC(=O)[C@H](Cc1ccc(O)cc1)NC(=O)[C@H](CCCCN)NC(=O)[C@H](CO)NC(=O)[C@H](Cc1ccc(O)cc1)NC(=O)[C@H](CC(=O)O)NC(=O)[C@H](CO)NC(=O)[C@@H](NC(=O)[C@H](Cc1ccccc1)NC(=O)[C@@H](NC(=O)CNC(=O)[C@H](Cc1c[nH]cn1)NC(=O)[C@H](CO)NC(=O)[C@@H](N)Cc1ccc(O)cc1)[C@@H](C)O)[C@@H](C)O)C(=O)N[C@@H](CC(=O)O)C(=O)N[C@@H](CO)C(=O)N[C@@H](C)C(=O)N[C@@H](CCCNC(=N)N)C(=O)N[C@@H](C)C(=O)N[C@@H](CCC(N)=O)C(=O)N[C@@H](CCC(=O)O)C(=O)N[C@@H](Cc1ccccc1)C(=O)N[C@H](C(=O)N[C@@H](CCCCN)C(=O)N[C@@H](Cc1c[nH]c2ccccc12)C(=O)N[C@@H](CC(C)C)C(=O)N[C@@H](CCC(=O)O)C(=O)N[C@@H](CC(=O)O)C(=O)N[C@@H](CCC(=O)O)C(=O)N1CCC[C@H]1C(=O)N[C@@H](CO)C(=O)N[C@@H](CO)C(=O)NCC(=O)N[C@@H](C)C(=O)N1CCC[C@H]1C(=O)N1CCC[C@H]1C(=O)N1CCC[C@H]1C(=O)N[C@@H](CO)C(N)=O)C(C)C [Compound A5] (H-YSHGTFTSDYSKYLDSARAQEFVKWLEDEPSSGAPPPS-NH2; N-terminus assumed) | – | 11.8 | 1580 | 1580 | – | – | 22.6 ± 0.6 | – | 0.00158 | > 200 | >94 | 11.7 | – | – | –
3 | CC(C)C[C@H](NC(=O)[C@H](Cc1ccc(O)cc1)NC(=O)[C@H](CCCCN)NC(=O)[C@H](CO)NC(=O)[C@H](Cc1ccc(O)cc1)NC(=O)[C@H](CC(=O)O)NC(=O)[C@H](CO)NC(=O)[C@@H](NC(=O)[C@H](Cc1ccccc1)NC(=O)[C@@H](NC(=O)CNC(=O)[C@H](CCC(N)=O)NC(=O)[C@H](CO)NC(=O)[C@@H](N)Cc1c[nH]c2ccccc12)[C@@H](C)O)[C@@H](C)O)C(=O)N[C@@H](CC(=O)O)C(=O)NC(C)(C)C(=O)N[C@@H](CCCCN)C(=O)N[C@@H](CCCNC(=N)N)C(=O)N[C@@H](C)C(=O)N[C@@H](CCC(N)=O)C(=O)N[C@@H](CCC(=O)O)C(=O)N[C@@H](Cc1ccccc1)C(=O)N[C@H](C(=O)NC(C)(C)C(=O)N[C@@H](Cc1c[nH]c2ccccc12)C(=O)N[C@@H](CC(C)C)C(=O)N[C@@H](CCC(=O)O)C(=O)N[C@@H](CC(=O)O)C(=O)N[C@@H](CCC(=O)O)C(=O)N1CCC[C@H]1C(=O)N[C@@H](CO)C(=O)N[C@@H](CO)C(=O)NCC(=O)N[C@@H](C)C(=O)N1CCC[C@H]1C(=O)N1CCC[C@H]1C(=O)N1CCC[C@H]1C(=O)N[C@@H](CO)C(=O)O)C(C)C [Compound A6] (H-WSQGTFTSDYSKYLD[Aib]KRAQEFV[Aib]WLEDEPSSGAPPPS-OH; N-terminus assumed) | – | 11.7 | 5010 | 5010 | – | – | 9.2 ± 0.2 | – | 0.002 | > 200 | >80 | 12.4 | – | – | –
4 | CC(C)C[C@H](NC(=O)[C@H](Cc1ccc(O)cc1)NC(=O)[C@H](CCCCN)NC(=O)[C@H](CO)NC(=O)[C@H](Cc1ccc(O)cc1)NC(=O)[C@H](CC(=O)O)NC(=O)[C@H](CO)NC(=O)[C@@H](NC(=O)[C@H](Cc1ccccc1)NC(=O)[C@@H](NC(=O)CNC(=O)[C@H](Cc1c[nH]cn1)NC(=O)[C@H](CO)NC(=O)[C@@H](N)Cc1ccc(O)cc1)[C@@H](C)O)[C@@H](C)O)C(=O)N[C@@H](CC(=O)O)C(=O)NC(C)(C)C(=O)N[C@@H](CCCCN)C(=O)N[C@@H](CCCNC(=N)N)C(=O)N[C@@H](C)C(=O)N[C@@H](CCC(N)=O)C(=O)N[C@@H](CCC(=O)O)C(=O)N[C@@H](Cc1ccccc1)C(=O)N[C@H](C(=O)NC(C)(C)C(=O)N[C@@H](Cc1c[nH]c2ccccc12)C(=O)N[C@@H](CC(C)C)C(=O)N[C@@H](CCC(=O)O)C(=O)N[C@@H](CC(=O)O)C(=O)N[C@@H](CCC(=O)O)C(=O)N1CCC[C@H]1C(=O)N[C@@H](CO)C(=O)N[C@@H](CO)C(=O)NCC(=O)N[C@@H](C)C(=O)N1CCC[C@H]1C(=O)N1CCC[C@H]1C(=O)N1CCC[C@H]1C(=O)N[C@@H](CO)C(=O)O)C(C)C [Compound A99] | – | – | > 1 | – | – | – | – | – | – | > 200 | >64 | 23 | > 1 | 22.3 ± 1.9 | –
5 | CC(C)C[C@H](NC(=O)[C@H](Cc1c[nH]c2ccccc12)NC(=O)[C@H](CCCCN)NC(=O)[C@@H](NC(=O)[C@H](Cc1ccccc1)NC(=O)[C@H](CCC(=O)O)NC(=O)[C@H](CCC(N)=O)NC(=O)[C@H](C)NC(=O)[C@H](CCCNC(=N)N)NC(=O)[C@H](CCCCN)NC(=O)C(C)(C)NC(=O)[C@H](CC(=O)O)NC(=O)[C@H](CC(C)C)NC(=O)[C@H](Cc1ccc(O)cc1)NC(=O)[C@H](CCCCN)NC(=O)[C@H](CO)NC(=O)[C@H](Cc1c[nH]cn1)NC(=O)[C@H](CC(=O)O)NC(=O)[C@H](CO)NC(=O)[C@@H](NC(=O)[C@H](Cc1ccccc1)NC(=O)[C@@H](NC(=O)CNC(=O)[C@H](Cc1c[nH]cn1)NC(=O)CNC(=O)[C@@H](N)Cc1ccc(O)cc1)[C@@H](C)O)[C@@H](C)O)C(C)C)C(=O)N[C@@H](CCC(=O)O)C(=O)N[C@@H](CC(=O)O)C(=O)N[C@@H](CCC(=O)O)C(=O)O [Compound A101] (H-YGHGTFTSDHSKYLD[Aib]KRAQEFVKWLEDE-OH; N-terminus assumed) | – | – | > 1 | – | – | – | – | – | – | > 200 | >50 | – | > 1 | 88.3 ± 9.0 | 0.00501
6 | CC(C)C[C@H](NC(=O)[C@H](Cc1c[nH]c2ccccc12)NC(=O)[C@H](CCCCN)NC(=O)[C@@H](NC(=O)[C@H](Cc1ccccc1)NC(=O)[C@H](CCC(=O)O)NC(=O)[C@H](CCC(N)=O)NC(=O)[C@H](C)NC(=O)[C@H](CCCNC(=N)N)NC(=O)[C@H](CCCCN)NC(=O)C(C)(C)NC(=O)[C@H](CC(=O)O)NC(=O)[C@H](CC(C)C)NC(=O)[C@H](Cc1c[nH]c2ccccc12)NC(=O)[C@H](CCCCN)NC(=O)[C@H](CO)NC(=O)[C@H](Cc1ccc(O)cc1)NC(=O)[C@H](CC(=O)O)NC(=O)[C@H](CO)NC(=O)[C@@H](NC(=O)[C@H](Cc1ccccc1)NC(=O)[C@@H](NC(=O)CNC(=O)[C@H](Cc1c[nH]cn1)NC(=O)[C@H](CO)NC(=O)[C@@H](N)Cc1ccc(O)cc1)[C@@H](C)O)[C@@H](C)O)C(C)C)C(=O)N[C@@H](CCC(=O)O)C(=O)N[C@@H](CC(=O)O)C(=O)N[C@@H](CCC(=O)O)C(=O)O [Compound A102] (H-YSHGTFTSDYSKWLD[Aib]KRAQEFVKWLEDE-OH; N-terminus assumed) | – | – | > 1 | – | – | – | – | – | – | > 200 | >51 | – | > 1 | 97.2 ± 6.3 | –
